According to patent US11413278B2, “Compounds and methods for promoting stress resistance” (priority 2015, dated 2022):
Like-named read-outs stand apart in the source and are kept apart here.

Assays:
Assay type in all cases: cell-based, human
FOXO3 = assay: qPCR analysis of FOXO3-regulated genes; details: for fold induction at 10 µM: Homo sapiens; for K = Sestrin induction: score
Outline: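 WI-38 cells treated with compound at 10 μM for 24 h, followed by Cells-to-Ct RT-qPCR of FOXO3 target genes normalised to B2M, PPIA and GAPDH. FOXO3 or NRF2 dependence tested by prior 10 nM siRNA knockdown (36 h transfection, compound added ~24 h after replating).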

LC3A/B puncta = assay: Autophagy induction analysis (LC3A/B puncta immuno-staining)
Experimental: Immuno-staining of LC3A/B was performed, following a standard protocol. Briefly, WI-38 cells were treated with small molecules for 24 hrs, and then processed and incubated with primary antibody (Cell Signaling, rabbit anti-LC3A/B, 1:100) overnight at 4° C. Next day, samples were processed and incubated with fluorophore-conjugated secondary antibody and further incubated with DAPI dye. Images were collected on the INCell Analyzer 2000 (Experiment 1: 10× objective; Experiment 2: 20× objective) and analyzed with the Developer Toolbox. For Experiment 2, lysosomal-associated membrane protein 2 (LAMP2) was also counter-stained to identify the LC3A/B puncta that colocalize with lysosome and the data were analyzed by the MetaXpress software (Molecular Devices, version 5.1). The intensity of total (Exp. 1) or LAMP2-colocalized LC3A/B puncta (Exp. 2) was normalized the total numbers nuclei in the fields.
These assays were performed, following the same procedures to analyze DNA-damage markers. WI-38 cells were incubated with small molecules for 24 hrs, and then processed and incubated with primary antibody (rabbit anti-LC3A/B, 1:100) overnight at 4 C. The next day, samples were processed and incubated with fluorophore-conjugated secondary antibody and further incubated with DAPI dye. Images were collected on an INCell Analyzer 2000 and analyzed with the Developer software. Total LC3A/B puncta intensity was normalized the total numbers of DAPI-positive nuclei.

mTOR = mTOR inhibition (RPS6 phosphorylation status), In-Cell Western
Outline: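 WI-38 cells exposed to compounds at 5, 10 and 20 μM for 24 hrs. Fixed cells co-stained overnight at 4° C with anti-RPS and anti-pRPS6 (Ser-235/236) antibodies, then DyLight 680/800 secondaries. Phospho-RPS6 relative to total RPS6 read by near-infrared In-Cell Western imaging.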

[1] = WI-38 cells, 10 μM, 24 hrs, n=4, qPCR normalized by B2M, read-out: DDB1 Normalized fold change
[2] = WI-38 cells, 10 μM, 24 hrs, n=4, qPCR normalized by B2M, read-out: GADD45A Normalized fold change
[3] = WI-38 cells, 10 μM, 24 hrs, n=4, qPCR normalized by B2M, read-out: SESN1 Normalized fold change
[4] = qPCR, WI-38 cells, 10 μM, n=4, 24 hrs, normalized by B2M, read-out: CAT Normalized fold change
[5] = qPCR, WI-38 cells, 10 μM, n=4, 24 hrs, normalized by B2M, read-out: SOD2 Normalized fold change
[6] = qPCR, WI-38 cells, 10 μM, n=4, 24 hrs, normalized by B2M, read-out: TXNIP Normalized fold change
[7] = 24 h, Assay 10(m), at 10 uM, qPCR, read-out: Induction of FOXO3-regulated genes: TXNIP normalized fold-change
[8] = 10 μM, 24 hrs, WI-38 cells, qPCR, normalized to B2M, n = 4, read-out: TXNIP expression, normalized fold change (FOXO3-regulated gene)
[9] = fold change, qPCR, WI-38 cells, 10 μM, 24 hrs, read-out: Summary of effects on FOXO3-regulated genes: TXNIP

With `O=C(Nc1nc(C23CC4CC(CC(C4)C2)C3)cs1)C(c1ccccc1)c1ccccc1` [O10] the “E = Potential FOXO3 Activation” value (FOXO3; 2-point score) was 0, the fold induction at 10 µM (FOXO3; [1]) was 0.906 and the fold induction at 10 µM (FOXO3; [2]) was 1.19. The fold induction at 10 µM (FOXO3; [3]) was 0.983, the fold induction at 10 µM (FOXO3; [4]) was 0.892 and the fold induction at 10 µM (FOXO3; [5]) was 0.912. The fold induction at 10 µM (FOXO3; [6]) was 0.731, the “K = Sestrin induction” value (FOXO3) was 0 and the “E = Potential FOXO3 Activation” value (FOXO3; summary score) was 0. The “H = Potential Autophagy Induction” value (LC3A/B puncta; score) was 0, the “H = Potential Autophagy Induction” value (LC3A/B puncta; summary score) was 0 and the “G = mTOR down-regulation” value (mTOR; 2-point score) was 0. For the same molecule, the “G = mTOR down-regulation” value (mTOR; summary score) was 0.

With `Cc1cc(C)c(C(=O)/C=C/c2ccccc2F)c(O)n1` [O18] the “E = Potential FOXO3 Activation” value (FOXO3; 2-point score) was 0, the fold induction at 10 µM (FOXO3; [7]) was 0.3 and the fold induction at 10 µM (FOXO3; [8]) was 0.3. The fold induction at 10 µM (FOXO3; [1]) was 1.33, the fold induction at 10 µM (FOXO3; [2]) was 0.861 and the fold induction at 10 µM (FOXO3; [3]) was 1.06. The fold induction at 10 µM (FOXO3; [9]) was 0.3, the fold induction at 10 µM (FOXO3; [4]) was 1.47 and the fold induction at 10 µM (FOXO3; [5]) was 1.04. The fold induction at 10 µM (FOXO3; [6]) was 0.297, the “K = Sestrin induction” value (FOXO3) was 0 and the “E = Potential FOXO3 Activation” value (FOXO3; summary score) was 0. The “H = Potential Autophagy Induction” value (LC3A/B puncta; score) was 0, the “H = Potential Autophagy Induction” value (LC3A/B puncta; summary score) was 0 and the “G = mTOR down-regulation” value (mTOR; 2-point score) was 0. The “G = mTOR down-regulation” value (mTOR; summary score) was 0.

With `O=[N+]([O-])c1ccccc1S(=O)(=O)Nc1cccc2cccnc12` [Gr-3A] the “E = Potential FOXO3 Activation” value (FOXO3; 2-point score) was 0, the fold induction at 10 µM (FOXO3; 24 h, Assay 10(m), at 10 uM, qPCR, read-out: Induction of FOXO3-regulated genes: CAT normalized fold-change) was 0.83 and the fold induction at 10 µM (FOXO3; 24 h, Assay 10(m), at 10 uM, qPCR, read-out: Induction of FOXO3-regulated genes: DDB1 normalized fold-change) was 0.81. For the same molecule, the fold induction at 10 µM (FOXO3; 24 h, Assay 10(m), at 10 uM, qPCR, read-out: Induction of FOXO3-regulated genes: SESN1 normalized fold-change) was 1.21, the fold induction at 10 µM (FOXO3; [7]) was 0.64 and the fold induction at 10 µM (FOXO3; 10 μM, 24 hrs, WI-38 cells, qPCR, normalized to B2M, n = 4, read-out: CAT expression, normalized fold change (FOXO3-regulated gene)) was 0.87. For the same molecule, the fold induction at 10 µM (FOXO3; 10 μM, 24 hrs, WI-38 cells, qPCR, normalized to B2M, n = 4, read-out: SESN1 expression, normalized fold change (FOXO3-regulated gene)) was 1.18, the fold induction at 10 µM (FOXO3; [8]) was 0.75 and the fold induction at 10 µM (FOXO3; [1]) was 0.969. For the same molecule, the fold induction at 10 µM (FOXO3; [2]) was 1.4, the fold induction at 10 µM (FOXO3; [3]) was 1.18 and the fold induction at 10 µM (FOXO3; fold change, qPCR, WI-38 cells, 10 μM, 24 hrs, read-out: Summary of effects on FOXO3-regulated genes: CAT) was 0.87. It also gave a fold induction at 10 µM (FOXO3; fold change, qPCR, WI-38 cells, 10 μM, 24 hrs, read-out: Summary of effects on FOXO3-regulated genes: SESN1) of 1.18, a fold induction at 10 µM (FOXO3; [9]) of 0.75 and a fold induction at 10 µM (FOXO3; [4]) of 0.871. The fold induction at 10 µM (FOXO3; [5]) was 1.48, the fold induction at 10 µM (FOXO3; [6]) was 0.754 and the “K = Sestrin induction” value (FOXO3) was 0. The “E = Potential FOXO3 Activation” value (FOXO3; summary score) was 0, the “H = Potential Autophagy Induction” value (LC3A/B puncta; score) was 0 and the “H = Potential Autophagy Induction” value (LC3A/B puncta; summary score) was 0. The “G = mTOR down-regulation” value (mTOR; 2-point score) was 0 and the “G = mTOR down-regulation” value (mTOR; summary score) was 0.
